Experimental data taken from patent US10525041B2, “Fluoroalkyl-substituted aryltriazole derivatives and uses thereof” (BAYER PHARMA AKTIENGESELLSCHAFT, priority 2016, dated 2020).

What was measured:
human V1a receptor = target: T1, human V1a receptor (Homo sapiens, UniProt P37288); assay: Cellular in vitro assay for vasopressin receptor activity, V1a cell line (aequorin luminescence); type: cell-based; conditions: for IC50: CHO cell line transfected with human V1a receptor, agonist [Arg8]-vasopressin at EC50 concentration, read-out: IC50hV1a; for ratio IC50 hV2/hV1a: ratio of the IC50 on human V2 to the IC50 on human V1a
T1 construct: expressed in transfected cells; host or cells: CHO K1 (ATCC), also stably transfected with a modified aequorin
T1 sequence (P37288 whole entry): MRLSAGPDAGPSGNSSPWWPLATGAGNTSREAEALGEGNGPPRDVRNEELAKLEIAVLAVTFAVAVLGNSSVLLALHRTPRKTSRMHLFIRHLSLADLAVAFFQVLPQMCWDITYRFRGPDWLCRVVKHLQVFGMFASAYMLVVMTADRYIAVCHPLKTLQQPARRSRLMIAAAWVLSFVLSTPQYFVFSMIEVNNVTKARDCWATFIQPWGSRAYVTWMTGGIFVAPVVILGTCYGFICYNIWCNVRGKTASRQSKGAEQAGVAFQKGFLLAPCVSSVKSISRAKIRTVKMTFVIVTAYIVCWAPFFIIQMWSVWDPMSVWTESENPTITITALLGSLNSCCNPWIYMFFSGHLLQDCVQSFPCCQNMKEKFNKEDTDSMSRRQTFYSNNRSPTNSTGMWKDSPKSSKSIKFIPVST
Experimental: (§1) B-1. Cellular In Vitro Assay for Determining Vasopressin Receptor Activity
(§2) The identification of agonists and antagonists of the V1a and V2 vasopressin receptors from humans, rats and dogs as well as the quantification of the activity of the compounds of the invention is carried out using recombinant cell lines. These cell lines originally derive from a hamster's ovary epithelial cell (Chinese Hamster Ovary, CHO K1, ATCC: American Type Culture Collection, Manassas, Va. 20108, USA). The test cell lines constitutively express the human, rat or dog V1a or V2 receptors. In case of the Gαq-coupled V1a receptors, cells are also stably transfected with a modified form of the calcium-sensitive photoproteins aequorin (human and rat V1a) or obelin (dog V1a), which, after reconstitution with the cofactor coelenterazine, emit light when there are increases in free calcium concentrations [Rizzuto R, Simpson A W, Brini M, Pozzan T, Nature 358, 325-327 (1992); Illarionov B A, Bondar V S, Illarionova V A, Vysotski E S, Gene 153 (2), 273-274 (1995)]. The resulting vasopressin receptor cells react to stimulation of the recombinantly expressed V1a receptors by intracellular release of calcium ions, which can be quantified by the resulting photoprotein luminescence. The Gs-coupled V2 receptors are stably transfected into cell lines expressing the gene for firefly luciferase under control of a CRE-responsible promoter. Activation of V2 receptors induces the activation of the CRE-responsive promoter via cAMP increase, thereby inducing the expression of firefly luciferase. The light emitted by photoproteins of V1a cell lines as well as the light emitted by firefly luciferase of V2 cell lines corresponds to the activation or inhibition of the respective vasopressin receptor. The bioluminescence of the cell lines is detected using a suitable luminometer [Milligan G, Marshall F, Rees S, Trends in Pharmacological Sciences 17, 235-237 (1996)].
Vasopressin V1a Receptor Cell Lines:
On the day before the assay, the cells are plated out in culture medium (DMEM/F12, 2% FCS, 2 mM glutamine, 10 mM HEPES, 5 μg/ml coelenterazine) in 384-well microtiter plates and kept in a cell incubator (96% humidity, 5% v/v CO2, 37° C.). On the day of the assay, test compounds in various concentrations are placed for 10 minutes in the wells of the microtiter plate before the agonist [Arg^8]-vasopressin at EC50 concentration is added. The resulting light signal is measured immediately in a luminometer.
(§3) Table 1A below lists individual IC50 values for the compounds of the invention (including racemic mixtures as well as separated enantiomers) that were obtained from cell lines transfected with the human V1a or V2 receptor: […]

human V2 receptor = target: T2, human V2 receptor (Homo sapiens, UniProt P30518); assay: Cellular in vitro assay for vasopressin receptor activity, V2 cell line (CRE-luciferase); type: cell-based; conditions: CHO cell line transfected with human V2 receptor; agonist [Arg8]-vasopressin at EC50 concentration, 3 hours; read-out: IC50hV2
T2 construct: expressed in transfected cells; host or cells: CHO K1 (ATCC) line expressing firefly luciferase under a CRE-responsive promoter
T2 sequence (P30518 whole entry): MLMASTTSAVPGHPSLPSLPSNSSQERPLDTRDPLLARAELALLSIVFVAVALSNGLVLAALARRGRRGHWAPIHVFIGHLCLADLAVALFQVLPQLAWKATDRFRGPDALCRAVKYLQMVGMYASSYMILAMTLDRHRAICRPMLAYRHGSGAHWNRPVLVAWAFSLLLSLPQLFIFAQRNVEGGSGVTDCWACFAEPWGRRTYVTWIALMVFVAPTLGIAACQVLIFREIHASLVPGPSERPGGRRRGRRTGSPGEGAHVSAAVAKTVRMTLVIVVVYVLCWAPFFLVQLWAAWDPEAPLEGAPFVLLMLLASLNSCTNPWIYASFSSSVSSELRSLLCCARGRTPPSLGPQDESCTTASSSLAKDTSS
Experimental: as §1, §2
Vasopressin V2 Receptor Cell Lines:
On the day before the assay, the cells are plated out in culture medium (DMEM/F12, 2% FCS, 2 mM glutamine, 10 mM HEPES) in 384-well microtiter plates and kept in a cell incubator (96% humidity, 5% v/v CO2, 37° C.). On the day of the assay, test compounds in various concentrations and the agonist [Arg^8]-vasopressin at EC50 concentration are added together to the wells, and plates are incubated for 3 hours in a cell incubator. Upon addition of the cell lysis reagent Triton™ and the substrate luciferin, luminescence of firefly luciferase is measured in a luminometer.
as §3

SMILES | IC50 (human V1a receptor) [nM] | ratio IC50 hV2/hV1a (human V1a receptor) | IC50 (human V2 receptor) [nM]
CC(F)c1nc(Cn2nc(-c3ccc(Cl)cc3)n(C[C@H](O)C(F)(F)F)c2=O)nn1-c1ncccc1C(F)(F)F (single isomer, unassigned) [Example 12] | 3.8 | 5.9 | 22.5
CC(F)c1nc(Cn2nc(-c3ccc(Cl)cc3)n(C[C@H](O)C(F)(F)F)c2=O)nn1-c1cccc(F)c1 (single isomer, unassigned) [Example 14] | 9.7 | 0.2 | 1.73
CC(F)c1nc(Cn2nc(-c3ccc(Cl)cc3)n(C[C@H](O)C(F)(F)F)c2=O)nn1-c1cccc(F)c1 (single isomer, unassigned) [Example 15] | 12.5 | 0.6 | 7.85
CC(F)c1nc(Cn2nc(-c3ccc(Cl)cc3)n(C[C@H](O)C(F)(F)F)c2=O)nn1-c1cccc(Cl)c1 (single isomer, unassigned) [Example 17] | 9.25 | 0.0 | 0.25
CC(F)c1nc(Cn2nc(-c3ccc(Cl)cc3)n(C[C@H](O)C(F)(F)F)c2=O)nn1-c1cccc(Cl)c1 (single isomer, unassigned) [Example 18] | 60 | 0.1 | 3.85
CC(F)c1nc(Cn2nc(-c3ccc(Cl)cc3)n(C[C@H](O)C(F)(F)F)c2=O)nn1-c1ncccc1Cl (single isomer, unassigned) [Example 20] | 1.35 | 4.4 | 5.95
CC(F)c1nc(Cn2nc(-c3ccc(Cl)cc3)n(C[C@H](O)C(F)(F)F)c2=O)nn1-c1ncccc1Cl (single isomer, unassigned) [Example 21] | 1.55 | 8.1 | 12.5
CC(F)c1nc(Cn2nc(-c3ccc(Cl)cc3)n(C[C@H](O)C(F)(F)F)c2=O)nn1-c1ccccc1C(F)(F)F (single isomer, unassigned) [Example 23] | 3.75 | 8.8 | 33
CC(F)c1nc(Cn2nc(-c3ccc(Cl)cc3)n(C[C@H](O)C(F)(F)F)c2=O)nn1-c1ccccc1C(F)(F)F (single isomer, unassigned) [Example 24] | 1.1 | 4.2 | 4.65
CC(F)c1nc(Cn2nc(-c3ccc(Cl)cc3)n(C[C@H](O)C(F)(F)F)c2=O)nn1-c1ccccc1OC(F)(F)F (single isomer, unassigned) [Example 26] | 3 | 5.8 | 17.5
CC(F)c1nc(Cn2nc(-c3ccc(Cl)cc3)n(C[C@H](O)C(F)(F)F)c2=O)nn1-c1ccccc1OC(F)(F)F (single isomer, unassigned) [Example 27] | 1.75 | 5.6 | 9.8
CCc1ccccc1-n1nc(Cn2nc(-c3ccc(Cl)cc3)n(C[C@H](O)C(F)(F)F)c2=O)nc1C(C)F (single isomer, unassigned) [Example 29] | 0.91 | 0.4 | 0.37
CCc1ccccc1-n1nc(Cn2nc(-c3ccc(Cl)cc3)n(C[C@H](O)C(F)(F)F)c2=O)nc1C(C)F (single isomer, unassigned) [Example 30] | 1.85 | 1.0 | 1.9
CC(F)c1nc(Cn2nc(-c3ccc(Cl)cc3)n(C[C@H](O)C(F)(F)F)c2=O)nn1-c1ccccc1OC(F)F (single isomer, unassigned) [Example 32] | 2.4 | 3.7 | 8.9
CC(F)c1nc(Cn2nc(-c3ccc(Cl)cc3)n(C[C@H](O)C(F)(F)F)c2=O)nn1-c1ccccc1OC(F)F (single isomer, unassigned) [Example 33] | 2.15 | 0.8 | 1.8
Cc1ccccc1-n1nc(Cn2nc(-c3ccc(Cl)cc3)n(C[C@H](O)C(F)(F)F)c2=O)nc1C(C)F (single isomer, unassigned) [Example 35] | 0.36 | 0.5 | 0.17
